Source: US20230104487A1, “11-(4-CHLOROPHENYL)-4-(2,3-DIHYDRO-1H-INDOLE-1-CARBONYL)-3,11-DIMETHYL-5,10,DIOXATRICYCLO[7.4.0.0,2,6,]TRIDECA-1,3,6,8-TETRAEN-13-ONE AND DERIVATIVES AS DESTABILIZER OF CRY1 FOR THE TREATMENT OF CIRCADIAN RHYTHM ASSOCIATED DISEASES AND DISORDERS” (KOC UNIVERSITESI, priority 2019, published 2023)
Entries after “also recorded” stand apart in the source; their conditions may differ.

Experiments:
Format in all cases: cell-based
NIH 3T3 Per2-dLuc cells = assay: Real-time monitoring of circadian rhythm, NIH 3T3 Per2-dLuc; settings: dose dependent
Experimental: (§1) Luminescence values were recorded at 32° C. for each 30 minutes with 15 seconds integration time via Synergy H1 luminometer for a week. For LumiCycle, 400×10^3 U2-OS Bmal1-dLuc or NIH3T3 mPer2-dLuc cells were seeded to 35 mm plates and then procedure given above was followed with a change in the last step. Plates were sealed with vacuum grease and placed to LumiCycle. Each plate was recorded continuously every 10 minutes for 70 seconds at 37° C. via photomultiplier tubes. Period and amplitude data were obtained from LumiCycle Analysis software. To detect the effect of FORMULA I in the absence of CRYs, Cry1^−/−/Cry2^−/− mouse embryonic fibroblasts (CRYDKO MEFs) transiently transfected with pGL3-Per2-Luc (luciferase reporter) were used. 3×10^5 CRYDKO cells were seeded in 35 mm clear plates. Next day, cells were transfected with 4000 ng pGL3-Per2-Luc via Fugene6 transfection reagent according to the manufacturer's instruction. In short, 3:1 ratio of Fugene6 in μl against transfected DNA amount in μg was kept in transfections. 72 h after transfection cells were synchronized with DXM for two hours. Then, medium was changed with lumicycle medium having DMSO or molecule, sealed with vacuum grease, and placed to LumiCycle.

CRY1 = biological target: T1, CRY1 (Homo sapiens, UniProt Q16526); assay: Protein immunoblot, unsynchronized U2-OS cells, CRY1; settings: Western blot
T1 construct: To evaluate the effect of FORMULA I on the endogenous protein and mRNA level of clock genes; endogenous in cells; host or cells: U2-OS
T1 sequence (Q16526 1-586): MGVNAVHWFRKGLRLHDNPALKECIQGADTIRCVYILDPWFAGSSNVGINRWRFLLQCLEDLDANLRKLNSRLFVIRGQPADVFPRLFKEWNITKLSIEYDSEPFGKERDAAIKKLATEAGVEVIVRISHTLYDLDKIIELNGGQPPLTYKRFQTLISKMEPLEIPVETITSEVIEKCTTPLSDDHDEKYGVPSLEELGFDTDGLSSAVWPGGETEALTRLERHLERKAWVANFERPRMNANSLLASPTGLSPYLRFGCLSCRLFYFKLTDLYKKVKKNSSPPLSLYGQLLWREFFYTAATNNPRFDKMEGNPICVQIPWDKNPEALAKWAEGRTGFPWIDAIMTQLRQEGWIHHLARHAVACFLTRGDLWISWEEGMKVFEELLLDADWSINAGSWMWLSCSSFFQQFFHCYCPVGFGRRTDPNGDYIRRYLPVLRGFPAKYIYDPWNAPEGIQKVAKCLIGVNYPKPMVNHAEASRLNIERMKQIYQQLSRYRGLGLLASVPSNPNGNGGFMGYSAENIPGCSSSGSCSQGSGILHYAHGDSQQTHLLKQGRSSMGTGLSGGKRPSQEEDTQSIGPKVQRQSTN
Experimental: Cells were lysed in RIPA buffer (50 mM Tris, 150 mM NaCl, 1% Triton-X, 0.1% SDS) with fresh Protease inhibitor cocktail (PIC). After centrifugation at 13000 rpm for 15 minutes at 4° C., supernatant was used to determine the protein amount using Pierce Protein Assay (Thermo Scientific) according to the manufacturer's instruction. Mice liver samples were homogenized and lysed with Dounce homogenizer and RIPA buffer. After homogenization samples were incubated 10 minutes on ice. After centrifugation 13000 rpm 15 minutes at 4° C. supernatant was used for the whole cell lysate. Subcellular fractionation of liver samples: Liver samples were homogenized with cytosolic lysis buffer (10 mM HEPES pH 7.9, 10 mM KCl, 0.1 mM EDTA, 0.05% NP40, proteasome inhibitor) by pipetting 40 times with a cut tip. Then samples were incubated 10 minutes on ice and centrifuged for 3 minutes at 3000 rpm at 4° C. Supernatant was saved in a new tube, and pellet was processed for the nuclear fraction. Supernatant was centrifuged at 13000 rpm for 3 minutes at 4° C. where new supernatant saved as the cytosolic fraction. […] ECL buffer system (Advansta WesternBright) was used to visualize HRP chemi-luminescence via BioRad ChemiDoc Touch visualizer.

[1] = tested on: Cry1−/−/Cry2−/− mouse embryonic fibroblasts; assay: Circadian reporter assay in CRY double knockout MEFs (mPer2-dLuc); settings: DKO-MEF transfected with mPer2-luc
Experimental: as §1

**Q.** Which “effect on circadian rhythm” value (NIH 3T3 Per2-dLuc cells) does the source give for Cc1c(C(=O)N2CCc3ccccc32)oc2ccc3c(c12)C(=O)CC(C)(c1ccc(Cl)cc1)O3 (stereo not drawn) [FORMULA I, 11-(4-chlorophenyl)-4-(2,3-dihydro-1H-indole-1-carbonyl)-3,11-dimethyl-5,10,dioxatricyclo[7.4.0.0,2,6,]trideca-1,3,6,8-tetraen-13-one] here?
**A.** exhibited similar phenotype

**Q.** And the “steady-state level of CRY1” value (CRY1)?
**A.** level of CRY1 reduced; also recorded: decreased the steady-state level of CRY1

**Q.** What about the “effect on rhythm in absence of CRYs” value [1] of the same molecule?
**A.** had no effect
